Data taken from patent US12612368B2 (Remedy Plan, Inc., priority 2019, dated 2026).
Where two headings read alike, the source gives them in different places.

Key:
NAMPT = biological target: T1, NAMPT (Homo sapiens, UniProt P43490); test: NAMPT Activity Assay (Abcam #ab221819); assay type: biochemical; conditions: purified NAMPT, two-step reaction, OD450 nm; percent inhibition vs no drug; compound concentration not stated
T1 construct: purchased Abcam ab221819

MV-4-11 cells = test: Cell viability in MV-4-11 cells (CellTiter Glo2); assay type: cell-based; conditions: Homo sapiens, MV4-11, 96 h, 8-point dose response, 4 days
Description: Approximately 10,000 MV-4-11 cells per well of a 96-well plate were treated with DMSO (no drug control) or each compound in Tables E1 and E2 in an 8-point dose response for 4 days, Cell viability was measured using CellTiter Glo2. The ICse of each compound was determined using CDD Vault.

[1] = CellTiter Glo2 (Table E2), read-out: MV-4-11 Cell Viability, MV-4-11 IC50
[2] = CellTiter Glo2 (Table E1), read-out: MV-4-11 IC50

T1 sequence (P43490 whole entry): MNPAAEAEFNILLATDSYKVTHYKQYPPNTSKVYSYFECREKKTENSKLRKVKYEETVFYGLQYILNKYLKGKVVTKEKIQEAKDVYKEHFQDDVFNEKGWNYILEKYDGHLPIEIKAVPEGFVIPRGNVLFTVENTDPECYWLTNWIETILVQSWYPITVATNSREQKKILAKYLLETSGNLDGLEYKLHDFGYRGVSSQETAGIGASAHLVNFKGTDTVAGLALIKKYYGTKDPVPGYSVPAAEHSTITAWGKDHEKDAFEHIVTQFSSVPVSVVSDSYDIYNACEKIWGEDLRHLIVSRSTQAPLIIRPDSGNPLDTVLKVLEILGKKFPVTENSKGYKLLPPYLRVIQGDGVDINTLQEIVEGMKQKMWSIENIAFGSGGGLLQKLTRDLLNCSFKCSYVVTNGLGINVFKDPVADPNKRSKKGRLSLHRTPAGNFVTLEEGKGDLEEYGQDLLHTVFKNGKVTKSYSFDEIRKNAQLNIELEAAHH

Row | Compound | NAMPT Inhibition Code (NAMPT) | IC50 (MV-4-11 cells; [1]) | IC50 (MV-4-11 cells; [2])
1 | CCC(=O)N(C)c1ccc(-c2ccc(C(=O)NCc3ccc(C)nc3C)cc2)cc1Cl [Compound I-481, 4-[3-chloro-4-[methyl(propanoyl)amino]phenyl]-N-[(2,6-dimethyl-3-pyridyl)methyl]benzamide] | A (A = <33% inhibition) | 104 nM | –
2 | CCN(C(C)=O)c1ccc(-c2ccc(C(=O)NCc3cccnc3)cn2)cc1Cl [Compound I-652, 6-[4-[Acetyl(ethyl)amino]-3-chloro-phenyl]-N-(3-pyridylmethyl)pyridine-3-carboxamide] | C (C = ≥66% inhibition) | 92.4 nM | –
3 | CC(=O)N(CC1CC(F)(F)C1)c1ccc(-c2ccc(C(=O)NCc3cccnc3)cn2)cc1C [Compound I-600, 6-[4-[Acetyl-[(3,3-difluorocyclobutyl)methyl]amino]-3-methyl-phenyl]-N-(3-pyridylmethyl)pyridine-3-carboxamide] | B (B = ≥33 to <66% inhibition) | 20.6 nM | –
4 | CCOC(=O)N(C)c1ccc(-c2ccc(C(=O)NCc3cccnc3)cn2)cc1 [Compound I-389, ethyl N-methyl-N-[4-[5-(3-pyridylmethylcarbamoyl)-2-pyridyl]phenyl]carbamate] | A (A = <33% inhibition) | – | 3170 nM
5 | CCC(=O)N(CC(C)C)c1ccc(-c2ccc(C(=O)NCc3cccnc3)cn2)cc1 [Compound I-403, 6-[4-[isobutyl(propanoyl)amino]phenyl]-N-(3-pyridylmethyl)pyridine-3-carboxamide] | C (C = ≥66% inhibition) | – | < 11.7 nM
6 | CC(=O)N(CC1COC1)c1ccc(-c2ccc(C(=O)NCc3cccnc3)cn2)cc1C [Compound I-610, 6-[4-[Acetyl(oxetan-3-ylmethyl)amino]-3-methyl-phenyl]-N-(3-pyridylmethyl)pyridine-3-carboxamide] | B (B = ≥33 to <66% inhibition) | 37 nM | –
7 | CC(=O)N(CC1CC1)c1ccc(-c2ccc(C(=O)Nc3cccnc3)cn2)cc1Cl [Compound I-683, 6-[4-[Acetyl(cyclopropylmethyl)amino]-3-chloro-phenyl]-N-(3-pyridyl)pyridine-3-carboxamide] | C (C = ≥66% inhibition) | > 997 nM | –
8 | CC(=O)N(CC1CC(F)(F)C1)c1ccc(-c2ccc(C(=O)NCc3cccnc3)cn2)cc1Cl [Compound I-603, 6-[4-[Acetyl-[(3,3-difluorocyclobutyl)methyl]amino]-3-chloro-phenyl]-N-(3-pyridylmethyl)pyridine-3-carboxamide] | C (C = ≥66% inhibition) | < 5.89 nM | –
9 | CC(=O)N(C)c1ccc(-c2ccc(C(=O)NCc3cccnc3C)cn2)cc1C#N [Compound I-456, 6-[4-[acetyl(methyl)amino]-3-cyano-phenyl]-N-[(2-methyl-3-pyridyl)methyl]pyridine-3-carboxamide] | A (A = <33% inhibition) | > 30000 nM | –
10 | CC(=O)N(CC1CC(F)(F)C1)c1ccc(-c2ccc(C(=O)NCc3cccnc3C)cn2)cc1C [Compound I-485, 6-[4-[Acetyl-[(3,3-difluorocyclobutyl)methyl]amino]-3-methyl-phenyl]-N-[(2-methyl-3-pyridyl)methyl]pyridine-3-carboxamide] | A (A = <33% inhibition) | 1340 nM | –
11 | CC(=O)N(CC1CC1)c1ccc(-c2ccc(C(=O)NCc3ccc4nccn4c3)cn2)cc1Cl [Compound I-679, 6-[4-[Acetyl(cyclopropylmethyl)amino]-3-chloro-phenyl]-N-(imidazo[1,2-a]pyridin-6-ylmethyl)pyridine-3-carboxamide] | C (C = ≥66% inhibition) | 0.566 nM | –
12 | CC(=O)N(CC1CC1)c1ccc(-c2ccc(C(=O)NCc3cccnc3)cn2)cc1Cl [Compound I-602, 6-[4-[Acetyl(cyclopropylmethyl)amino]-3-chloro-phenyl]-N-(3-pyridylmethyl)pyridine-3-carboxamide] | C (C = ≥66% inhibition) | 5.56 nM | –
13 | CC(=O)N(CC1CC1)c1ccc(-c2ccc(C(=O)NCc3ccc(Cl)nc3)cn2)cc1Cl [Compound I-689, 6-[4-[Acetyl(cyclopropylmethyl)amino]-3-chloro-phenyl]-N-[(6-chloro-3-pyridyl)methyl]pyridine-3-carboxamide] | C (C = ≥66% inhibition) | 32.8 nM | –
14 | CCOC(=O)NCCN(C(C)=O)c1ccc(-c2ccc(C(=O)NCc3cccnc3C)cn2)cc1C [Compound I-486, Ethyl N-[2-[N-acetyl-2-methyl-4-[5-[(2-methyl-3-pyridyl)methylcarbamoyl]-2-pyridyl]anilino]ethyl]carbamate] | A (A = <33% inhibition) | 2700 nM | –
15 | CC(=O)N(CC(C)C)c1ccc(-c2ccc(C(=O)NCc3cccnc3)cc2)cc1 [Compound I-402, 4-[4-[acetyl(isobutyl)amino]phenyl]-N-(3-pyridylmethyl)benzamide] | C (C = ≥66% inhibition) | – | 58.7 nM
16 | CCC(=O)N(C)c1ccc(-c2ccc(C(=O)NCc3cccnc3Cl)cn2)cc1 [Compound I-395, N-[(2-chloro-3-pyridyl)methyl]-6-[4-[methyl(propanoyl)amino]phenyl]pyridine-3-carboxamide] | A (A = <33% inhibition) | – | 6110 nM
17 | CC(=O)N(c1ccc(-c2ccc(C(=O)NCc3cccnc3)cn2)cc1Cl)C(C)C [Compound I-596, 6-[4-[Acetyl(isopropyl)amino]-3-chloro-phenyl]-N-(3-pyridylmethyl)pyridine-3-carboxamide] | C (C = ≥66% inhibition) | 2.39 nM | –
18 | CC(=O)N(CCC(F)(F)F)c1ccc(-c2ccc(C(=O)NCc3cccnc3)cn2)cc1Cl [Compound I-604, 6-[4-[Acetyl(3,3,3-trifluoropropyl)amino]-3-chloro-phenyl]-N-(3-pyridylmethyl)pyridine-3-carboxamide] | B (B = ≥33 to <66% inhibition) | 33 nM | –
19 | CC(=O)N(CC(C)C)c1ccc(-c2ccc(C(=O)NCc3cccnc3C)cn2)cc1Cl [Compound I-459, 6-[4-[acetyl(isobutyl)amino]-3-chloro-phenyl]-N-[(2-methyl-3-pyridyl)methyl]pyridine-3-carboxamide] | A (A = <33% inhibition) | 1510 nM | –
20 | COC(=O)NCCN(C(C)=O)c1ccc(-c2ccc(C(=O)NCc3cccnc3C)cn2)cc1C [Compound I-487, Methyl N-[2-[N-acetyl-2-methyl-4-[5-[(2-methyl-3-pyridyl)methylcarbamoyl]-2-pyridyl]anilino]ethyl]carbamate] | A (A = <33% inhibition) | 4350 nM | –
21 | CC(=O)N(C)c1ccc(-c2ccc(C(=O)NCc3cccnc3)cn2)cc1C(F)(F)F [Compound I-658, 6-[4-[Acetyl(methyl)amino]-3-(trifluoromethyl)phenyl]-N-(3-pyridylmethyl)pyridine-3-carboxamide] | B (B = ≥33 to <66% inhibition) | 150 nM | –
22 | CC(=O)N(CC(F)F)c1ccc(-c2ccc(C(=O)NCc3cccnc3)cn2)cc1C [Compound I-608, 6-[4-[Acetyl(2,2-difluoroethyl)amino]-3-methyl-phenyl]-N-(3-pyridylmethyl)pyridine-3-carboxamide] | B (B = ≥33 to <66% inhibition) | 220 nM | –
23 | CC(C)CN(CC(C)C)c1ccc(-c2ccc(C(=O)NCc3cccnc3)cc2)cc1 [Compound I-406, 4-[4-(diisobutylamino)phenyl]-N-(3-pyridylmethyl)benzamide] | B (B = ≥33 to <66% inhibition) | – | 817 nM
24 | CC(=O)N(CC(C)C)c1ccc(-c2ccc(C(=O)NCc3cccnc3)cn2)cc1 [Compound I-404] | B (B = ≥33 to <66% inhibition) | – | 32 nM
25 | Cc1cc(-c2ccc(C(=O)NCc3cccnc3)cn2)ccc1N(C(=O)C(F)F)C(C)C [Compound I-595, 6-[4-[(2,2-Difluoroacetyl)-isopropyl-amino]-3-methyl-phenyl]-N-(3-pyridylmethyl)pyridine-3-carboxamide] | C (C = ≥66% inhibition) | 4.53 nM | –
26 | CCC(=O)N(C)c1ccc(-c2ccc(C(=O)Nc3cccnc3)cn2)cc1 [Compound I-353, 6-[4-[methyl(propanoyl)amino]phenyl]-N-(3-pyridyl)pyridine-3-carboxamide] | C (C = ≥66% inhibition) | – | 941 nM
27 | CCC(=O)N(C)c1ccc(-c2ccc(C(=O)N(C)Cc3cccnc3)cn2)cc1C [Compound I-496, N-methyl-6-[3-methyl-4-[methyl(propanoyl)amino]phenyl]-N-(3-pyridylmethyl)pyridine-3-carboxamide] | A (A = <33% inhibition) | > 15800 nM | –
28 | CC(=O)N(CCC(F)F)c1ccc(-c2ccc(C(=O)NCc3cccnc3)cn2)cc1 [Compound I-629, 6-[4-[Acetyl(3,3-difluoropropyl)amino]phenyl]-N-(3-pyridylmethyl)pyridine-3-carboxamide] | B (B = ≥33 to <66% inhibition) | 358 nM | –
29 | Cc1cc(-c2ccc(C(=O)NCc3cccnc3C)cn2)ccc1N(C)C(=O)CC#N [Compound I-492, 6-[4-[(2-cyanoacetyl)-methyl-amino]-3-methyl-phenyl]-N-[(2-methyl-3-pyridyl)methyl]pyridine-3-carboxamide] | A (A = <33% inhibition) | 6770 nM | –
30 | CC(=O)N(C)c1ccc(-c2ccc(C(=O)NCc3cccnc3C)cn2)cc1C(F)(F)F [Compound I-455, 6-[4-[acetyl(methyl)amino]-3-(trifluoromethyl)phenyl]-N-[(2-methyl-3-pyridyl)methyl]pyridine-3-carboxamide] | A (A = <33% inhibition) | 3470 nM | –
